Source: patent publication US7943795B2, “Vitamin D receptor modulators” (Eli Lilly and Company, priority 2004, dated 2011)

Experiments:
RXR-VDR heterodimer = target: T1, RXR-VDR heterodimer (Homo sapiens, UniProt P11473); assay: RXR-VDR heterodimerization (SaOS-2 cells) test; format: cell-based; settings: Gal-4-RXR-DEF / VP16-VDR-LBD, luciferase reporter
T1 construct: add the Reporter gene pFR-LUC; and add the Gal-4-RXR-DEF and VP16-VDR-LBD; expressed in transfected cells; host or cells: SaOS-2 cells
T1 sequence (P11473 127-423 limits assumed): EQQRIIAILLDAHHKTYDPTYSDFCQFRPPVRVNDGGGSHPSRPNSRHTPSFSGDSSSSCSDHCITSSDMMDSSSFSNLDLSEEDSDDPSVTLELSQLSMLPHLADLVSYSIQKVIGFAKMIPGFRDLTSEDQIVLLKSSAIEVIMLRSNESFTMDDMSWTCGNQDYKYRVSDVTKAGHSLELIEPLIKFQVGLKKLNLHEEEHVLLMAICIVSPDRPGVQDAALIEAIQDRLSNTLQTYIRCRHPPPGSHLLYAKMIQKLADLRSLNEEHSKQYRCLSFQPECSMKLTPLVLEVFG
T1 sequence (P19793 201-462 partner limits assumed): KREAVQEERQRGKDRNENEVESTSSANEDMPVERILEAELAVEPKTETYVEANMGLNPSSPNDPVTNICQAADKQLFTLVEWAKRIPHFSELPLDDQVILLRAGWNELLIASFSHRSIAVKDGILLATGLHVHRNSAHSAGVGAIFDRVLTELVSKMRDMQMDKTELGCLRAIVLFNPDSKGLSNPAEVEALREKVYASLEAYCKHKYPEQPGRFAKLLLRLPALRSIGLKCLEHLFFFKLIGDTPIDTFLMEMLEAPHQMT
Protocol: 2. The RXR-VDR heterodimerization (SaOS-2 cells) test is described in the “Assay” section of the Description, infra.
1. The RXR-VDR Heterodimer Assay:
This assay provides the VDR activity of a test compound. It is desirable to have low EC50 values for a compound in this assay. […] Desired assay results are EC50 values less than or equal to 600 nM. Preferred assay results are less than 250 nM, and most preferably less than 150 nM.
(1) Materials and Method for RXR-VDR Heterodimerization Assay Transfection
• Method: Reagents: FuGENE 6 Transfection Reagent (Roche Cat #1 814 443); Growth Media: D-MEM High Glucose (Gibco BRL Cat #11054-020), 10% heat inactivated FBS, (Gibco BRL Cat#10092-147) 1% antibiotic-antimycotic (Ab-Am); (Gibco BRL Cat #15240-062). • Cells: Grow SaOS-2 cells in T-150 cm^2 culture flasks in growth media keeping the density at 5-6×10^5 cells/ml. Passage cells 1:3 twice a week. Add Trypsin EDTA (Gibco BRL Cat #25300-020) and incubate. Resuspend cells in plating media and transfer into growth media. • Wash Media: HBSS Low Glucose Without Phenol Red (Gibco BRL Cat #14175-095), 1% Ab-Am. Plating Media: D-MEM Low Glucose Without Phenol Red (Gibco BRL Cat #11054-020), 1% Ab-Am; D-MEM; 10% Stripped FBS (Hyclone Cat#SH30068.03 Lot #AHM9371); • Transfection/Treatment Media: D-MEM Low Glucose Without Phenol Red only; T-150 cm^2 culture flask: Use Corning Coastar T-150 cm^2 culture flask (Cat #430825) to grow the cells. • Luciferase Assay Reagent: Use Steady-Glo Luciferase Reagent from Promega (Cat #E2550) Consists of: E2533 Assay Substrate, lyophilized product and E2543 Assay Buffer. Thaw at room temperature and store. • Cell Harvesting/Count: Aspirate media from culture flask, rinse cells with HBSS and aspirate. Add trypsin and incubate. When cells appear detached, resuspend cells in growth media. Transfer into a new flask with fresh growth media for passaging the cells. Plate 96 well plates and two extra plates. Mix the cell suspension using pipette. To count the cells using a Hematocytometer. • Plate seeding: Use plating media 10% Stripped FBS in D-MEM Low Glucose, without Phenol Red, 1% Ab-Am. Plate 14 plates @ 165 μl/well. In sterile flask add cell suspension to plating media and mix. Add cells/well. Place the cells in the incubator. Cells should be about 75% confluent prior to transfection. DAY 2: Transfection: Step 1, DNA and Media: Add plain DMEM media to tubes for mixing the DNA; add the Reporter gene pFR-LUC; and add the Gal-4-RXR-DEF and VP16-VDR-LBD. Step 2, FuGENE and Media: Prepare plain DMEM media in a tubes for mixing FuGENE, add FuGENE 6 Transfection Reagent, and incubate. Step 3, FuGENE, DNA and Media Complex: Add FuGENE Media complex from step 2 to DNA Media complex from step 1 and incubate. Step 4, FuGENE, DNA and Media Complex to 96 well plate: Add FuGENE-DNA-Media complex from step 3 to each plate. Incubate. • Day 3: Dosing: Treatment preparation. Allow for transfection time. Make a stock solution of the compounds in DMSO and vortex until all the compounds have been dissolved. Further dilute in D-MEM (Low Glucose—without Phenol Red) Add compounds in quadruplicate to give desired final volume then incubate. • Day 4: Luciferase Assay: Read the plates after drug treatment. Remove part of media from all the wells and leave remainder. Add Steady-Glo Luciferase Reagent mixture/wells and incubate. Count each well using a Luminescence counter, Top Count NXT by Packard preferably set a delay between plates to reduce the background.

[1] = Mouse hypercalcemia assay; format: in vivo
Protocol: 5. The Mouse Hypercalcemia test is described in the “Assay” section of the Description, infra.
The Mouse Hypercalcemia Assay
The Mouse Hypercalcemia Assay is a six day hypercalcemia test for toxicity and selectivity. Acceptable test results are levels greater than 30 μg/kg/day. Preferred assay results are levels greater than 300 μg/kg/day.
Weanling, virus—antibody-free, five to six weeks old female DBF mice (Harlan, Indianapolis, Ind.) are used for all the studies. Animals are allowed to acclimate to local vivarium conditions for 2 days. Mice are maintained on a 12 hr light/dark cycle at 22° C. with ad lib access to food (TD 5001 with 1.2% Ca and 0.9% P, Teklad, Madison, Wis.) and water. The animals then are divided into groups with 4-5 mice per group. Different doses of test compounds prepared in 10% ethanol and 90% sesame oil, or in an aqueous suspension of sodium lauryl sulfate and CMC (the latter formulation for acidic compounds) are administered to mice orally via gavage for 6 days. 1α-25(OH)2D3 0.5 μg/kg/d was also given to one group of mice as the positive control. Serum ionized calcium is evaluated at 6 hours after the last dosing under isoflurane anesthesia by Ciba-Corning Ca++/PH Analyzer, (Model 634, Chiron Diagnostics Corp., East Walpole, Mass.). Raw data of group differences is assessed by analysis of variance (ANOVA) using Fisher's protected least significant difference (PLSD) where the significance level was P<0.05.

[2] = no effect level: highest dose that did not cause hypercalcemia, oral gavage for 6 days, female DBF mice, serum ionized calcium
[3] = female, DBF, mouse, in vivo, po, 6 days

| Structure (SMILES) | EC50 (RXR-VDR heterodimer) [nM] | Mouse Hypercal [1, 2] [µg/kg/day] | Mouse Hypercal [1, 3] [µg/kg/day] |
| --- | --- | --- | --- |
| CCC(CC)(c1ccc(OCC(=O)C(C)(C)C)c(C)c1)c1ccc2cc(C(=O)N(C)CC(=O)O)ccc2c1 [Ex. 5, [(6-{1-[4-(3,3-Dimethyl-2-oxobutoxy)-3-methylphenyl]-1-ethylpropyl}naphthalene-2-carbonyl)methylamino]acetic acid] | 1 | <30 | – |
| CCC(CC)(c1ccc(OCC(O)C(C)(C)C)c(C)c1)c1ccc2cc(C(=O)O)ccc2c1 (single isomer, unassigned) [Ex. 2A, 6-{1-Ethyl-1-[4-(2-hydroxy-3,3-dimethyl-butoxy)-3-methyl-phenyl]-propyl}-naphthalene-2-carboxylic acid] | 30.2 | 300 | – |
| CCC(CC)(c1ccc(OCC(=O)C(C)(C)C)c(C)c1)c1ccc2cc(C(=O)O)ccc2c1 [Ex. 1, 6-{1-[4-(3,3-dimethyl-2-oxobutoxy)-3-methylphenyl]-1-ethylpropyl}naphthalene-2-carboxylic acid] | 40 | – | 1000 |
| CCC(CC)(c1ccc(OCC(=O)C(C)(C)C)c(C)c1)c1ccc2cc(C(=O)NCC(=O)O)ccc2c1 [Ex. 3, [(6-{1-[4-(3,3-Dimethyl-2-oxo-butoxy)-3-methylphenyl]-1-ethylpropyl}naphthalene-2-carbonyl)amino]acetic acid] | 0.4 | <300 | – |
| CCC(CC)(c1ccc(OCC(=O)C(C)(C)C)c(C)c1)c1ccc2cc(C(=O)N(C)C)ccc2c1 [Ex. 4, 6-{1-[4-(3,3-dimethyl-2-oxobutoxy)-3-methylphenyl]-1-ethylpropyl}naphthalene-2-carboxylic acid dimethylamide] | 105 | – | 1000 |
